Changes are numbered by the printed parent chain.
Experiments:
[1] = biological target: T1, HDAC8 Cys102Ser/Cys153Ser/Cys125Ser (Homo sapiens, UniProt Q9BY41, C102S/C125S/C153S); assay: HDAC8 mutant biochemical assay; conditions: read-out: IC50 [μM] @ 100 nM HDAC8: C Cys102Ser/Cys153Ser/Cys125Ser, 1 h preincubation
T1 construct: made in house
T1 sequence (Q9BY41 1-377 C102S/C125S/C153S): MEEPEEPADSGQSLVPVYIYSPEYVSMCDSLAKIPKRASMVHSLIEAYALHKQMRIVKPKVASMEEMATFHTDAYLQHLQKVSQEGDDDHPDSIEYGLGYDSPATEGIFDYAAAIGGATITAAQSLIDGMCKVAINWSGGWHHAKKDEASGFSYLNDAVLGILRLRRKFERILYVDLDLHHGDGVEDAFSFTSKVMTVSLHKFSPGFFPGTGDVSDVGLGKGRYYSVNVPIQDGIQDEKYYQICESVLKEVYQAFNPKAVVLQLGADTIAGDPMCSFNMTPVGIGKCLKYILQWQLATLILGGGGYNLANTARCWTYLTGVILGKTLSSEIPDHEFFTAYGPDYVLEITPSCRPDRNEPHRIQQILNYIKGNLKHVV
Procedure: (§1) HDAC8 mutant variants were generated, produced, and further purified as described previously.[32] Cysteines 28 and 314 were exchanged with serine using the following primer pairs: HD8_C28S_for, […]; HD8_C28S_rev, […]; HD8_C314S_for, […]; HD8_C314S_rev, […].
(§2) The enzyme activity assay was performed in assay buffer [25 mM Tris-HCl (pH 8.0), 50 mM NaCl, and 0.001% (v/v) Pluronic F-68] in black half-area 96-well microplates (Greiner Bio-One). For the initial screening, 10 nM HDAC8 was preincubated with the indicated compounds at 250 μM for 2 h at 30 °C. […] The reaction was initiated by the addition of 20 μM Boc-Lys(TFA)-AMC (Bachem). After substrate conversion at 30 °C for 15 min for HDAC8 and 1 h for HDAC8 mutants and HDAC4, the reaction was stopped by adding 1.67 μM suberoylanilide trifluoromethylketone (SATFMK). The deacetylated substrate was cleaved with 0.42 mg/mL trypsin to release fluorescent 7-amino-4-methylcoumarin (AMC), which was detected with a microplate reader (PHERAstar FS […]) with fluorescence excitation at 360 nm and emission at 460 nm. IC50 values were calculated by generating dose–response curves in GraphPad Prism 6 and fitting those to a four-parameter logistic model.

HDAC8 = biological target: T2, HDAC8 (Homo sapiens, UniProt Q9BY41); assay: Kinetic parameters of inactivation from time-dependent IC50; assay type: biochemical
T2 construct: one additional N-terminal residue 'H' (His) (N)
T2 sequence (Q9BY41 1-377): T1 sequence (Q9BY41 1-377 C102S/C125S/C153S) with S102C, S125C, S153C
Procedure: Time-dependent IC50 values were obtained using the previously described enzyme activity assay after varying preincubation times.

SMC3 acetylation = assay: Western blot (immunoblot) in OCI-AML3 cells; assay type: cell-based; conditions: 72 h treatment
Procedure: Cells (2 ×10^6) were seeded in 2 mL of medium in a six-well plate (Greiner) and treated with the desired concentration of the compounds. […] Protein concentrations were determined by the Bradford protein assay. Thirty micrograms of cell lysates per treatment was fractionated on sodium dodecyl sulfate–polyacrylamide gels and transferred to nitrocellulose membranes (Cytiva).

HDAC4 = HDAC4 (Homo sapiens, UniProt P56524); assay: HDAC4 biochemical assay; conditions: preincubation 1 h, 1 nM HDAC4
Procedure: as §2, with “Bio-One).” for “Bio-One). For the initial screening, 10 nM HDAC8 was preincubated with the indicated compounds at 250 μM for 2 h at 30 °C.”, “After substrate conversion at 30 °C for 15 min for HDAC8 and 1 h for HDAC8 mutants and HDAC4, the reaction was stopped by adding 1.67 μM suberoylanilide trifluoromethylketone (SATFMK).” left out

HDAC8 Cys153Ser mutant = biological target: T3, HDAC8 Cys153Ser mutant (Homo sapiens, UniProt Q9BY41, C153S); assay: HDAC8 mutant biochemical assay; conditions: preincubation 1 h
T3 construct: made in house
Procedure: as §1, §2

HL60 cells = assay: CellTiter-Blue cell viability assay; assay type: cell-based; conditions: Homo sapiens, HL-60; 72 h, Figure 7A
Procedure: All cell lines were purchased from DSMZ (Braunschweig, Germany). The cell lines were regularly tested to exclude mycoplasma contamination and authenticated. Cell lines were grown at 37 °C and 5% CO2 in RPMI 1640 medium (Gibco, Thermo Fisher Scientific). Media were supplemented with 10% fetal calf serum (FCS), 10 units/mL penicillin, 10 μg/mL streptomycin, and 2 mM L-glutamine (all Gibco, Thermo Fisher Scientific).
To determine the IC50 of the selected compounds on the cell lines, the CellTiter-Blue cell viability assay (Promega) was performed. For this, cells were seeded in 96-well flat-bottom plates at a cell density of 10 000 cells/well. Cells were treated in triplicate with the compound of interest at various concentrations or with 10 μM Bortezomib (S1013; Selleck Chemicals, Houston, TX), as a positive control. The cell viability of treated cell lines was measured using CellTiter-Blue after incubation for 72 h. Plates were measured using a GloMax plate reader (Promega), and IC50 values were determined by nonlinear regression using GraphPad Prism version 9.1.1 (GraphPad Software, Inc.), and the data are reported as mean values ± the standard error of the mean.

T3 sequence (Q9BY41 whole entry C153S): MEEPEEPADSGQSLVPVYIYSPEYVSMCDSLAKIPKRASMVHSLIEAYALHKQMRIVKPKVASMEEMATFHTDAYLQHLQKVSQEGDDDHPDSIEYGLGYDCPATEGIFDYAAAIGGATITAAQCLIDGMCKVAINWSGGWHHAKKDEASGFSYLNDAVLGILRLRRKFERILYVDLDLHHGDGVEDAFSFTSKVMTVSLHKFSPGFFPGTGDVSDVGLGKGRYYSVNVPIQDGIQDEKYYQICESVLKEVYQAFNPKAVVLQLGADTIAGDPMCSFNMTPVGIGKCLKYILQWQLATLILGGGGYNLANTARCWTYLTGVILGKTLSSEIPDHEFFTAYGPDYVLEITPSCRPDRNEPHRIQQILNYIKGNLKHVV
Sequence of HDAC4 (P56524 whole entry, species assumed): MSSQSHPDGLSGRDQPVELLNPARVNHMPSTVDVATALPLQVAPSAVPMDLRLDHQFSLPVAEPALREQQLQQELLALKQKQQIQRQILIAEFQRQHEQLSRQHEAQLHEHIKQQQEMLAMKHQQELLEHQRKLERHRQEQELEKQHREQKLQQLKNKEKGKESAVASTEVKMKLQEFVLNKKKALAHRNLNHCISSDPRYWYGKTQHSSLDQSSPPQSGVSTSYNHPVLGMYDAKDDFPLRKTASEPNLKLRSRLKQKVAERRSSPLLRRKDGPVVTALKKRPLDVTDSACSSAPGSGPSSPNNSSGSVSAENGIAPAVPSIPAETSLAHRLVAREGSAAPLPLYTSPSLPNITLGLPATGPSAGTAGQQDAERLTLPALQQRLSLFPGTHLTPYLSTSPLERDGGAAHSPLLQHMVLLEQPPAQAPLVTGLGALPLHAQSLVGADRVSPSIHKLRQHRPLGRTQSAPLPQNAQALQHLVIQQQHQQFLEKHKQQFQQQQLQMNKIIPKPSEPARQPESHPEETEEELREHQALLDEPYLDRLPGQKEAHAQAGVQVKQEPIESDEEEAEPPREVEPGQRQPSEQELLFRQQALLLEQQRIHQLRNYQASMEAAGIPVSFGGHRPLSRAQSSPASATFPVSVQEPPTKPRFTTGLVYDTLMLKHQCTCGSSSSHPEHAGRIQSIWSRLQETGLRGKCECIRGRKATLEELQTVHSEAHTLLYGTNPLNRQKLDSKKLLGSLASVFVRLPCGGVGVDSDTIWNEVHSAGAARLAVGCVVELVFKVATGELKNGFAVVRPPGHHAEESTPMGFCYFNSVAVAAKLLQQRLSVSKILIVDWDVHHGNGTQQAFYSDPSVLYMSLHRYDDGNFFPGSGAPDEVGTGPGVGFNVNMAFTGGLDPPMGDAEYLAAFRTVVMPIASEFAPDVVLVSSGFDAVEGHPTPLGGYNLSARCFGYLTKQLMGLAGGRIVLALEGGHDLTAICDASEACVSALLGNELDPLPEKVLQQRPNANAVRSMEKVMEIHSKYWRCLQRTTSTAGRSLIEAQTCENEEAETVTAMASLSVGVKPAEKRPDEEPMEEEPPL

Structure (SMILES) | IC50 [1] [µM] | other results
C[n+]1ccccc1I [A3+] | 65 ± 6 | 
C#Cc1c[n+](C)ccc1NC(=O)CC(=O)N1Cc2ccccc2C1.[I-] [compound 3, 3-Ethynyl-4-[3-(isoindolin-2-yl)-3-oxopropanamido]-1-methylpyridin-1-ium Iodide] |  | kinact/KI (HDAC8; HDAC8): 1570 M⁻¹ s⁻¹; Ki (HDAC8; HDAC8, inactivation constant): 3.2 µM; kinact (HDAC8; HDAC8, time-dependent IC50, Krippendorff approach): 0.0051 s⁻¹; concentration inducing an increased level of SMC3 acetylation (SMC3 acetylation): 10 µM; effect on HDAC8 levels (SMC3 acetylation): not influencing HDAC8 levels; IC50 (HDAC4): 23.1 µM; IC50 (HDAC8 Cys153Ser mutant): 58.8 µM; IC50 (HL60 cells): 161 µM
C[n+]1ccc(I)cc1 [C3+] | 81 ± 4 | 
C[n+]1cccnc1Br [D2+] | 52 ± 7 | 
C#Cc1cc[n+](C)cc1 [C6+] | 15 ± 1 | 
C[n+]1cccnc1Cl [D1+] | 82 ± 4 | 

More lines, main results first:

IC50 [1] [µM] | Structure (SMILES) | other results
14 ± 1 | C[n+]1cccnc1I [D3+] | 
56 ± 5 | C[n+]1cncc(Br)c1 [F2+] | 
> 130 | C#Cc1nccc[n+]1C [D6+] | 
126 ± 17 | C#Cc1c[n+](C)ccn1 [G6+] | 

From PMC10788917 (Journal of Medicinal Chemistry, 2023)
